Laboratory results from ChEMBL document CHEMBL6078630, “Design, synthesis, and bioactivity investigation of novel cyclic lipopeptide antibiotics targeting top-priority multidrug-resistant gram-negative bacteria” (Eur J Med Chem, 2024).
Converted amounts (≈) assume the structure as drawn. Bridge positions count the residues as written; N and C are the ends. Square brackets hold non-standard residues; d marks the D form. Peptide text beside a SMILES is read from it. * marks the point of attachment. Octanoyl = CCCCCCCC(=O)*; Dab = NCC[C@H](N)C(=O)O

What was measured:
[1] = test system: Escherichia coli; assay: Antibacterial activity against carbapenem-resistant Escherichia coli ATCC BAA-2340 assessed as inhibition of bacterial growth incubated for 16 to 20 hrs by CLSI protocol based broth microdilution method; assay type: functional; conditions: time 16-20 hrs
[2] = test system: Pseudomonas aeruginosa; assay: Antibacterial activity against Pseudomonas aeruginosa ATCC 27853 assessed as inhibition of bacterial growth incubated for 16 to 20 hrs by CLSI protocol based broth microdilution method; assay type: functional; conditions: time 16-20 hrs
[3] = test system: Klebsiella pneumoniae; assay: Antibacterial activity against carbapenem-resistant Klebsiella pneumoniae ATCC BAA-1705 assessed as inhibition of bacterial growth incubated for 16 to 20 hrs by CLSI protocol based broth microdilution method; assay type: functional; conditions: time 16-20 hrs
[4] = test system: Pseudomonas aeruginosa; assay: Antibacterial activity against carbapenem-resistant Pseudomonas aeruginosa clinical isolate 19-3 assessed as inhibition of bacterial growth incubated for 16 to 20 hrs by CLSI protocol based broth microdilution method; assay type: functional; conditions: time 16-20 hrs
[5] = test system: Escherichia coli; assay: Antibacterial activity against Escherichia coli ATCC BAA-2523 assessed as inhibition of bacterial growth incubated for 16 to 20 hrs by CLSI protocol based broth microdilution method; assay type: functional; conditions: time 16-20 hrs
[6] = Renal cytotoxicity against HK-2 cells incubated for 72 hrs by CCK8 assay; assay type: toxicity, cell-based; conditions: human
[7] = test system: Klebsiella pneumoniae; assay: Antibacterial activity against carbapenem-resistant Klebsiella pneumoniae clinical isolate KPN+19-15 assessed as inhibition of bacterial growth incubated for 16 to 20 hrs by CLSI protocol based broth microdilution method; assay type: functional; conditions: time 16-20 hrs
[8] = test system: Acinetobacter baumannii; assay: Antibacterial activity against Acinetobacter baumannii NCTC 13304 (OXA-27) assessed as inhibition of bacterial growth incubated for 16 to 20 hrs by CLSI protocol based broth microdilution method; assay type: functional; conditions: time 16-20 hrs
[9] = test system: Acinetobacter baumannii; assay: Antibacterial activity against carbapenem-sensitive Acinetobacter baumannii clinical isolate 19-1 assessed as inhibition of bacterial growth incubated for 16 to 20 hrs by CLSI protocol based broth microdilution method; assay type: functional; conditions: time 16-20 hrs

CC(C)CCCCC(=O)N[C@@H](CCN)C(=O)N[C@H](C(=O)N[C@@H](CCCCN)C(=O)N[C@H]1CCNC(=O)[C@H]([C@@H](C)O)NC(=O)[C@H](CCN)NC(=O)[C@H](CCN)NC(=O)[C@H]([C@@H](C)O)NC(=O)[C@@H](Cc2ccccc2)NC(=O)[C@H](CCN)NC1=O)[C@@H](C)O
MIC [1]: 0.25 µg/mL (≈ 0.207 µM) | MIC [2]: > 64 µg/mL | MIC [3]: 0.25 µg/mL (≈ 0.207 µM) | MIC [4]: 4 µg/mL (≈ 3.32 µM) | MIC [5]: 0.25 µg/mL (≈ 0.207 µM) | IC50 at 72 h [6]: > 500 µg/mL | MIC [7]: 0.25 µg/mL (≈ 0.207 µM) | MIC [8]: 1 µg/mL (≈ 0.83 µM) | MIC [9]: 2 µg/mL (≈ 1.66 µM)

CC(C)C[C@@H]1NC(=O)[C@H](CCN)NC(=O)[C@@H](NC(=O)[C@@H](CO)NC(=O)[C@@H](NC(=O)[C@H](CCN)NC(=O)CCCCCCC(=O)O)[C@@H](C)O)CCNC(=O)[C@H]([C@@H](C)O)NC(=O)[C@H](CCN)NC(=O)[C@H](CCN)NC(=O)[C@H]([C@@H](C)O)NC1=O
MIC [1]: 0.125 µg/mL (≈ 0.108 µM) | MIC [2]: 8 µg/mL (≈ 6.89 µM) | MIC [3]: 0.5 µg/mL (≈ 0.431 µM) | MIC [4]: 8 µg/mL (≈ 6.89 µM) | MIC [5]: 0.125 µg/mL (≈ 0.108 µM) | IC50 at 72 h [6]: > 500 µg/mL | MIC [7]: 0.25 µg/mL (≈ 0.215 µM) | MIC [8]: 0.25 µg/mL (≈ 0.215 µM) | MIC [9]: 0.5 µg/mL (≈ 0.431 µM)

CC(C)CCCCC(=O)N[C@@H](CCN)C(=O)N[C@H](C(=O)N[C@H](CO)C(=O)N[C@H]1CCNC(=O)[C@H]([C@@H](C)O)NC(=O)[C@H](CCN)NC(=O)[C@H](CCN)NC(=O)[C@H](CC(C)C)NC(=O)[C@H](Cc2ccccc2)NC(=O)[C@H](CCN)NC1=O)[C@@H](C)O
MIC [1]: ≤ 0.03 µg/mL | MIC [2]: 1 µg/mL (≈ 0.85 µM) | MIC [3]: 0.125 µg/mL (≈ 0.106 µM) | MIC [4]: 2 µg/mL (≈ 1.7 µM) | MIC [5]: 0.06 µg/mL (≈ 0.051 µM) | IC50 at 72 h [6]: > 500 µg/mL | MIC [7]: ≤ 0.03 µg/mL | MIC [8]: ≤ 0.03 µg/mL | MIC [9]: ≤ 0.03 µg/mL

CCCCCCCC(=O)N[C@@H](CCN)C(=O)N[C@H](C(=O)N[C@@H](CCN)C(=O)N[C@H]1CCNC(=O)[C@H]([C@@H](C)O)NC(=O)[C@H](CCN)NC(=O)[C@H](CCN)NC(=O)[C@H]([C@@H](C)O)NC(=O)[C@@H](CCC)NC(=O)[C@H](CCN)NC1=O)[C@@H](C)O [listing 1 of 2 here]
IC50 at 72 h [6]: > 500 µg/mL

CCCCCCCC(=O)N[C@@H](CCN)C(=O)N[C@H](C(=O)N[C@@H](CCN)C(=O)N[C@H]1CCNC(=O)[C@H]([C@@H](C)O)NC(=O)[C@H](CCN)NC(=O)[C@H](CCN)NC(=O)[C@H]([C@@H](C)O)NC(=O)[C@@H](CCC)NC(=O)[C@H](CCN)NC1=O)[C@@H](C)O [listing 2 of 2 here]
MIC [1]: 0.5 µg/mL (≈ 0.443 µM) | MIC [2]: 1 µg/mL (≈ 0.885 µM) | MIC [3]: 2 µg/mL (≈ 1.77 µM) | MIC [4]: 1 µg/mL (≈ 0.885 µM) | MIC [5]: 0.25 µg/mL (≈ 0.221 µM) | MIC [7]: 0.5 µg/mL (≈ 0.443 µM) | MIC [8]: 4 µg/mL (≈ 3.54 µM) | MIC [9]: 4 µg/mL (≈ 3.54 µM)

CC(C)CCCCC(=O)N[C@@H](CCN)C(=O)N[C@H](C(=O)N[C@H](CCCCN)C(=O)N[C@H]1CCNC(=O)[C@H]([C@@H](C)O)NC(=O)[C@H](CCN)NC(=O)[C@H](CCN)NC(=O)[C@H]([C@@H](C)O)NC(=O)[C@@H](Cc2ccccc2)NC(=O)[C@H](CCN)NC1=O)[C@@H](C)O
MIC [1]: 1 µg/mL (≈ 0.83 µM) | MIC [2]: 32 µg/mL (≈ 26.5 µM) | MIC [3]: 0.125 µg/mL (≈ 0.104 µM) | MIC [4]: 4 µg/mL (≈ 3.32 µM) | MIC [5]: 0.125 µg/mL (≈ 0.104 µM) | IC50 at 72 h [6]: > 500 µg/mL | MIC [7]: 0.25 µg/mL (≈ 0.207 µM) | MIC [8]: 0.5 µg/mL (≈ 0.415 µM) | MIC [9]: 0.5 µg/mL (≈ 0.415 µM)

CC(C)CCCCC(=O)N[C@@H](CCN)C(=O)N[C@H](C(=O)N[C@@H](CO)C(=O)N[C@H]1CCNC(=O)[C@H]([C@@H](C)O)NC(=O)[C@H](CCN)NC(=O)[C@H](CCN)NC(=O)[C@H]([C@@H](C)O)NC(=O)[C@@H](CC(C)C)NC(=O)[C@H](CCN)NC1=O)[C@@H](C)O
MIC [1]: 2 µg/mL (≈ 1.77 µM) | MIC [2]: > 64 µg/mL | MIC [3]: 4 µg/mL (≈ 3.54 µM) | MIC [4]: 64 µg/mL (≈ 56.6 µM) | MIC [5]: 2 µg/mL (≈ 1.77 µM) | IC50 at 72 h [6]: > 500 µg/mL | MIC [7]: 4 µg/mL (≈ 3.54 µM) | MIC [8]: 8 µg/mL (≈ 7.08 µM) | MIC [9]: 8 µg/mL (≈ 7.08 µM)

C[C@@H](O)[C@@H]1NC(=O)[C@H](CCN)NC(=O)[C@H](CCN)NC(=O)[C@H]([C@@H](C)O)NC(=O)[C@H](Cc2ccccc2)NC(=O)[C@H](CCN)NC(=O)[C@@H](NC(=O)[C@@H](CO)NC(=O)[C@@H](NC(=O)[C@H](CCN)NC(=O)CCCCCCC(=O)O)[C@@H](C)O)CCNC1=O
MIC [1]: ≤ 0.03 µg/mL | MIC [2]: 4 µg/mL (≈ 3.35 µM) | MIC [3]: 0.06 µg/mL (≈ 0.0502 µM) | MIC [4]: 4 µg/mL (≈ 3.35 µM) | MIC [5]: ≤ 0.03 µg/mL | IC50 at 72 h [6]: > 500 µg/mL | MIC [7]: ≤ 0.03 µg/mL | MIC [8]: ≤ 0.03 µg/mL | MIC [9]: 0.06 µg/mL (≈ 0.0502 µM)

CCCCCCCC(=O)N[C@@H](CCN)C(=O)N[C@H](C(=O)N[C@@H](CCN)C(=O)N[C@H]1CCNC(=O)[C@H]([C@@H](C)O)NC(=O)[C@H](CCN)NC(=O)[C@H](CCN)NC(=O)[C@H]([C@@H](C)O)NC(=O)[C@@H](Cc2ccccc2)NC(=O)[C@H](CCN)NC1=O)[C@@H](C)O (Octanoyl-[Dab]T[Dab][Dab][Dab][dF]T[Dab][Dab]T; lactam 4-C)
IC50 at 72 h [6]: > 500 µg/mL
